The test system of assay [1] is BEAS-2B cells. As to the kind of experiment: TNFα-stimulated BEAS-2B IL-8 release assay. The assay is classed as cell-based. The settings on record: Homo sapiens, IC50 classes, TNF-α 10 ng/ml, 18 h, read-out: TNFα-stimulated BEAS-2B IL-8 release inhibition. Here is the method:
TNFα-Stimulated BEAS-2B IL-8 Release Assay
Human bronchial epithelial cell line BEAS-2B was purchased from Sigma (St. Louis, Mo.). BEAS-2B cells were cultured in Bronchial Epithelial cell Growth Medium (BEGM), prepared by supplementing Bronchial Epithelial Basal Medium with SingleQuotes™ (Lonza, Switzerland), which contains retinoic acid, epidermal growth factor, epinephrine, transferrin, triiodothyronin, insulin, hydrocortisone, antimicrobial agents, and bovine pituitary extract. In addition, BEGM medium was supplemented with 2 mM glutamine, 100 U penicillin and 100 μg/ml streptomycin (Life Technologies), in an atmosphere of 95% air and 5% CO2 at 37° C.
BEAS-2B were seeded in 48-well plates at the density of 3×10^4 cells per well, grown to approximately 80-90% confluence. Cells were pre-incubated with p38 inhibitors for 1 hour and then stimulated with TNF-α (10 ng/ml) for 18 h at 37° C. with 5% CO2. Subsequently, supernatants were collected and used for measuring IL-8 levels using a paired antibody quantitative ELISA kit purchased from Life Technologies (detection limit: […]). All the treatments were performed at least in quadruplicate.
A concentration-response curve to each test compound was performed and the effect of compound in each experiment was expressed as a percentage inhibition of the control IL-8 release. Compound potency (IC50) was calculated by the analysis of the sigmoidal dose-response curve (variable slope) elaborated by Graph Pad PRISM4 program.

The test system of assay [2] is Peripheral Blood Mononuclear Cells (PBMCs). Briefly: LPS-stimulated PBMC TNFα release assay. The format is cell-based. The settings on record: IC50 classes; human PBMC, LPS 10 ng/ml, 18 h; read-out: LPS-stimulated PBMC TNFα release inhibition. Here is the method: 1-10 nM ‘+’; • <1 nM ‘++’ LPS-Stimulated PBMC TNFα Release Assay
Peripheral Blood Mononuclear Cells (PBMCs) were isolated from healthy human volunteer blood using a standard density gradient centrifugation technique. Citrated blood was placed onto Histopaque™ and centrifuged. The PBMCs were removed from the density gradient interface and washed in phosphate buffered saline (PBS). The PBMCs were suspended in RPMI 1640 medium (without serum), dispensed into a 96-well plate and incubated at 37° C. for 3 h in a humidified incubator. After incubation, the medium was replaced (with medium containing 1% foetal bovine serum) and the plate incubated at 37° C., for 1 h, in the presence of test compound or the appropriate vehicle. LPS (10 ng/ml), or an appropriate vehicle control, was then added to the cells and the plate returned to the incubator for 18 h. Cell-free supernatants were removed and assayed for TNFα levels using MSD plates on the Sector Imager 6000 (MesoScale).
A dose response curve to each test compound was performed and the effect of compound in each experiment was expressed as a percentage inhibition of the control TNFα release. Dose response curves were plotted and compound potency (IC50) was determined. Compounds were tested in at least three separate experiments.

Assay [3] has as its target T1, p38alpha (Homo sapiens, UniProt Q16539).
T1 construct: purchased Invitrogen PV3304
Briefly: P38alpha enzyme inhibition assay (Alphascreen kinase activity assay). The format is biochemical. The conditions noted are these: IC50 classes; 2 hours preincubation at 25° C., 250 μM ATP; read-out: p38α inhibition. Here is the method:
P38alpha Enzyme Inhibition Assay
The inhibitory activity of compounds was determined using an Alphascreen® (Perkin Elmer) based kinase activity assay. Kinase reactions consisted of 25 mM HEPES pH 7.5, 10 mM MgCl2, 100 μM Na3VO4, 2 mM DTT, 0.05 mg/ml Tween […] (Invitrogen, PV3304), 1% DMSO and 0.3 μg/ml ATF-2 fusion protein (New England Biolabs, 9224). Compounds were incubated under these conditions for 2 hours, at 25° C., prior to the initiation of the kinase activity by the addition of the 250 μM ATP. Reaction volumes were 20 uL. After 1 hr at 25° C. reactions were stopped by the adding 10 uL of 25 mM HEPES pH 7.5 containing 62.5 mM EDTA, 0.05% Triton X-100, 10% BSA and 0.83 ng/uL anti-phospho-ATF2 antibody (Abcam, ab28812). Detection was performed by measuring luminescence following the addition of Alphascreen Donor beads (Perkin Elmer 6765300) and Protein A Alphascreen Acceptor beads (Perkin Elmer 6760137), both at a final concentration of 20 ug/ml. IC50 values were determined from concentration-response curves.

Experimental findings from patent publication US10100050B2 (CHIESI FARMACEUTICI S.P.A., priority 2015, dated 2018) are described below.

Where a name gives a salt, the structure may show the parent alone. A value given as a limit tells only on which side of the number the result lay.

T1 sequence (Q16539 whole entry): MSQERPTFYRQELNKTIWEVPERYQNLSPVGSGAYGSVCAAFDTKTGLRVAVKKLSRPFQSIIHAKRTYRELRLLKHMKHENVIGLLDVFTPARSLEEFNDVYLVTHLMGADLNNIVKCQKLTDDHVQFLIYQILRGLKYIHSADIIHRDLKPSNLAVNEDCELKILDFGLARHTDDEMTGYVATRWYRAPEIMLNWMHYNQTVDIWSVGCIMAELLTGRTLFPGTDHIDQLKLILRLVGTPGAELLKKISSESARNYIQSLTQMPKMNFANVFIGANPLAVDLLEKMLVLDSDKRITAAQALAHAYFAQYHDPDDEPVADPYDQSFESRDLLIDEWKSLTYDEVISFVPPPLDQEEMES

As to `COc1c(NC(C)=O)cc(C(C)(C)C)cc1NC(=O)N[C@H]1CC[C@@H](Oc2ccc3nnc([C@@H]4CCCN4C(C)C)n3c2)c2ccccc21` [Example 9, N-[5-tert-Butyl-3-(3-{(1S,4R)-4-[3-((S)-1-isopropyl-pyrrolidin-2-yl)-[1,2,4]triazolo[4,3-a]pyridin-6-yloxy]-1,2,3,4-tetrahydro-naphthalen-1-yl}-ureido)-2-methoxy-phenyl]-acetamide], the IC50 in assay [1] was under 0.3 nM; in assay [2], under 1 nM; in assay [3], 1 to 10 nM.
On to `COc1c(CO)cc(C(C)(C)C)cc1NC(=O)N[C@H]1CC[C@@H](Oc2ccc3nnc([C@]4(C)CCCN4C)n3c2)c2ccccc21` [Example 3, 1-(5-tert-Butyl-3-hydroxymethyl-2-methoxy-phenyl)-3-{(1S,4R)-4-[-3-((S)-1,2-dimethyl-pyrrolidin-2-yl)-[1,2,4]triazolo[4,3-a]pyridin-6-yloxy]-1,2,3,4-tetrahydro-naphthalen-1-yl}-urea hydrochloride salt], for which the IC50 is under 0.3 nM in assay [1], under 1 nM in assay [2] and under 1 nM in assay [3].
Turning to `CNS(=O)(=O)c1cc(NC(=O)N[C@H]2CC[C@@H](Oc3ccc4nnc([C@]5(C)CCCN5C)n4c3)c3ccccc32)cc(C(C)(C)C)c1` [Example 39, 3-tert-Butyl-5-(3-{(1S,4R)-4-[3-((S)-1,2-dimethyl-pyrrolidin-2-yl)-[1,2,4]triazolo[4,3-a]pyridin-6-yloxy]-1,2,3,4-tetrahydro-naphthalen-1-yl}-ureido)-N-methyl-benzenesulfonamide], the values for the IC50 in assay [1], in assay [2] and in assay [3] were under 0.3 nM, under 1 nM and under 1 nM, respectively.
As for `CN1CCN(C(C)(C)c2nnc3ccc(O[C@@H]4CC[C@H](NC(=O)Nc5cc(NS(C)(=O)=O)cc(C(C)(C)C)c5)c5ccccc54)cn23)CC1` [Example 62, N-{3-tert-Butyl-5-[3-((1S,4R)-4-{3-[1-methyl-1-(4-methyl-piperazin-1-yl)-ethyl]-[1,2,4]triazolo[4,3-a]pyridin-6-yloxy}-1,2,3,4-tetrahydro-naphthalen-1-yl)-ureido]-phenyl}-methanesulfonamide], the IC50 in assay [1] was over 1 nM; in assay [2], over 5 nM; in assay [3] it was under 1 nM.
Turning to `CC(C)(C)c1cc(NC(=O)N[C@H]2CC[C@@H](Oc3ccc4nnc([C@@H]5CCCN5CCO)n4c3)c3ccccc32)cc(NS(C)(=O)=O)c1` [Example 31, N-{3-tert-Butyl-5-[3-((1S,4R)-4-{3-[(S)-1-(2-hydroxy-ethyl)-pyrrolidin-2-yl]-[1,2,4]triazolo[4,3-a]pyridin-6-yloxy}-1,2,3,4-tetrahydro-naphthalen-1-yl)-ureido]-phenyl}-methanesulfonamide], the IC50 in assay [1] is over 1 nM; in assay [2], over 5 nM; in assay [3], under 1 nM.
In the case of `CN(C)C(C)(C)c1nnc2ccc(O[C@@H]3CC[C@H](NC(=O)Nc4cc(NS(C)(=O)=O)cc(C(C)(C)C)c4)c4ccccc43)cn12` [Example 19, N-[3-tert-Butyl-5-(3-{(1S,4R)-4-[3-(1-dimethylamino-1-methyl-ethyl)-[1,2,4]triazolo[4,3-a]pyridin-6-yloxy]-1,2,3,4-tetrahydro-naphthalen-1-yl}-ureido)-phenyl]-methanesulfonamide], the IC50 was under 0.3 nM in assay [1], under 1 nM in assay [2] and under 1 nM in assay [3].
As for `CN1CCC[C@@]1(C)c1nnc2ccc(O[C@@H]3CC[C@H](NC(=O)Nc4cc(NS(=O)(=O)C5CC5)cc(C(C)(C)C)c4)c4ccccc43)cn12` [Example 37, Cyclopropanesulfonic acid [3-tert-butyl-5-(3-{(1S,4R)-4-[3-((S)-1,2-dimethyl-pyrrolidin-2-yl)-[1,2,4]triazolo[4,3-a]pyridin-6-yloxy]-1,2,3,4-tetrahydro-naphthalen-1-yl}-ureido)-phenyl]-amide], the IC50 was under 0.3 nM in assay [1], under 1 nM in assay [2] and 1 to 10 nM in assay [3].
